According to PMC6278385, “Preclinical Pharmacokinetics of C118P, a Novel Prodrug of Microtubules Inhibitor and Its Metabolite C118 in Mice, Rats, and Dogs” (Molecules, 2018):
Like-named read-outs stand apart in the source and are kept apart here.

How the values were obtained:
[1] = Metabolic stability in liver microsomes; type: in vitro ADME, rat
Protocol: (§1) The in vitro metabolic stability of C118P and C118 were estimated in mice, rat, dog, monkey, and human liver microsomes (Research Institute for Liver Diseases Co. Ltd (Shanghai, China)). The incubation mixture contains C118P or C118, NADP (1.0 mM), G-6-P (10 mM), PDH (2 units/mL), MgCl2 (10 mM), and liver microsomes (mice, rats, dogs, monkeys, or humans, 1.0 mg protein/mL) in phosphate buffer. A total of 200 μL of the mixture was removed and quenched with 600 μL acetonitrile in an ice bath at 0, 15, 30, 60, 120, and 240 min after the addition of NADPH.
(§2) CLint, in vitro (the in vitro intrinsic clearance, Equation (1)) was calculated from the t1/2 of C118 disappearance, where Cprotein is the protein concentration during the incubation, and t1/2 was determined by the slope (k) of the log-linear regression analysis of the concentration versus time profiles; thus, t1/2 = ln2/k. […] The in vivo hepatic clearance (CLH, Equation (3)) was then calculated by using CLint and hepatic blood flow, Q ([…] mL·min^−1·kg^−1 in rats, dogs, monkey, and humans, respectively), in the well-stirred liver model disregarding all binding. The hepatic extraction ratio was calculated as CLH divided by Q. CLint, in vitro = (0.693/t1/2) × (1/Cprotein)(1) CLint = CLint, in vitro × (mg protein/g liver weight) × (gliver weight/kg body weight)(2) CLH = (Q × CLint)/(Q + CLint)(3)

[2] = Tandem two-compartment PK model of C118P and C118; type: in vivo, rat; conditions: for K12 / K21 / V1 / K10: rat; for K12 / K21 / V1: two-compartmental model parameter (Table S1); for K10: two-compartmental model, K10 supposed to be transformation rate of C118P into C118, simulated
Excerpt: Due to the rapid transformation of C118P into C118, there is no direct way to calculate the rate of transformation, thus a two-compartment model with metabolism involved was developed (Figure S3). The transformation rate from C118P into C118 was simulated by fitting the two-serial data of prodrug C118P and C118 in rats and dogs.
3. The pharmacokinetic profile of C118P and C118 was simulated by two compartmental models. To simplify the model, the excretion rate of C118P from central compartment was supposed to be zero. In this model, both C118P and C118 were described by two-compartmental model, with elimination rate of k(0,3) for C118. The connection between C118P and C118 is by the uniflow of transformation rate of k(3,1) since the metabolism of C118P to C118 is irreversible(Figure S3).
Figure S3. The pharmacokinetic model of C118P and C118 in rat after i.v C118P. ex1: the injection dose of C118P, s1: concentration of C118 in central compartment. s2: concentration of C118 in central compartment, q1 and q3 represent the central compartment of C118P and C118, respectively.
The q2 and q4 represent the peripheral compartment of C118P and C118, respectively. k(0,3) represents the elimination rate of C118 from central compartment. k(3,1) represents the transformation rate of C118P to C118. k(2,1) and k(4,3) represent the distribution rate of C118P and C118 from central compartment to peripheral compartment. k(1,2) and k(3,4) represent the return rate of C118P and C118 from peripheral compartment to central compartment.
For prodrug pharmacokinetic prediction, the transformation of prodrug to the active drug should be studied in different system to get the right data. With the help of modeling, the transformation ratio of C118P to C118 was calculated by a tandem two-compartment model (SAAMII, University of Washington). In simulation study, the initial parameters are very important for accurate prediction.
The initial compartmental model parameters of rat and dog were first evaluated by Winnonlin using two-compartmental model at low dose, with intravenous for C118P and extra vessel for C118 since […]
(1 picture or pasted object on this page, not shown here)
C118 was transformed from C118P. The initial parameters used in the simulation were listed in Table S1. Using these parameters, the simulation of PK profiles of rat and dog are well fit to the data from in vivo at higher dose (Figure S4). The simulation of C118P and C118, the transformation rate of C118P to C118 is calculated and transformation ratio (k) is about 18.3671/h and12.588 1/h for rats and dogs, respectively.
Figure S4. The simulation of PK profile at 20 mg/kg in rat(A) and 6 mg/kg(B) in dog based on initial parameters calculated by Winnonlin. (s1 represent the simulated data for C118 and s2 represent the simulated data for C118P, plasma 1 represent the experimental data for C118 and plasma 2 represent the experimental data for C118P.) […]

[3] = Tissue distribution in rats; type: in vivo; conditions: for concentration at 10 min: both sexes, Sprague-Dawley (SD), rat, iv, 10 min after i.v. 20 mg/kg of C118P
Protocol: Eighteen rats (weight 220–260 g) with half males and half females were randomly assigned to there groups to carry out a tissue distribution study and fasted overnight. Blood and tissue samples, including the brain, skin, muscle, fat, testicle/ovary, pancreas, spleen, kidney, stomach, small intestine, heart, liver, lung, thymus, and thighbone were collected at 10 min, 1, and 4 h after intravenous administration (20 mg/kg). Blood was centrifuged for plasma samples. Tissue samples were rinsed with water to remove the blood and blotted dry with filter paper. An accurately-weighed amount of the tissue sample (0.2 g) or the entire organ for which weight less than 0.2 g was individually homogenized with EDTA solution (40 mg/mL, 2.0 mL). The left thigh bone was crushed and then soaked overnight in methanol-EDTA solution (1:1, v/v). A volume of 50 μL of homogenate or soak solution was prepared by protein precipitation and determined by the method described above. Tissue weights were used for calculating the concentrations (ng/g) of C118P and C118 in tissues.

[4] = Metabolic stability in liver microsomes; type: in vitro ADME, monkey
Protocol: as §1, §2

| Compound | half-life ([1]; Sprague-Dawley, rat liver microsomes, 1.0 mg protein/mL, C118 disappearance) [min] | CLint, in vitro ([1]; rat liver microsomes) [μL·min^−1·mg^−1 Protein] | CLint ([1]; rat, scaled from CLint, in vitro) [mL/min/kg] | Extrapolated CLH ([1]; rat, well-stirred liver model) [mL/min/kg] | K12 [2] [h⁻¹] | K21 [2] [h⁻¹] | V1 [2] [mL/kg] | K10 [2] [h⁻¹] | tissue concentration in most tissues ([3]; 4 h after i.v. 20 mg/kg of C118P, LLOQ 50 ng/g for tissues) | concentration at 10 min ([3]; heart, read-out: tissue concentration in heart) [ng/g] | concentration at 10 min ([3]; kidney, read-out: tissue concentration in kidney) [ng/g] | concentration at 10 min ([3]; lung, read-out: tissue concentration in lung) [ng/g] | CLint, in vitro ([4]; monkey liver microsomes) [μL·min^−1·mg^−1 Protein] | half-life ([4]; monkey liver microsomes, 1.0 mg protein/mL, C118 disappearance) [min] | CLint ([4]; monkey, scaled from CLint, in vitro) [mL/min/kg] | Extrapolated CLH ([4]; monkey, well-stirred liver model) [mL/min/kg] | stability in liver microsomes ([1]; rat liver microsomes (Figure S1)) | transformation ratio (k) of C118P to C118 ([2]; rats, simulated with tandem two-compartment model) [h⁻¹] | tissue concentration ([3]; 10 min, 1 h and 4 h after i.v. 20 mg/kg of C118P, LLOQ 50 ng/g for tissues) | stability in liver microsomes ([4]; monkey liver microsomes (Figure S1)) |
| --- | --- | --- | --- | --- | --- | --- | --- | --- | --- | --- | --- | --- | --- | --- | --- | --- | --- | --- | --- | --- |
| COc1cc(OC)cc(-c2nc[nH]c2-c2ccc(OC)c(O)c2)c1 [C118] | 10.3 | 67.0 | 115.3 | 43.6 | 0.3516 | 0.0121 | 2708 | 0.9897 | below or slightly higher than LLOQ | 6340 ± 4130 | 7640 ± 3410 | 12900 | 318.6 | 2.2 | 252.8 | 37.5 |  |  |  |  |
| COc1cc(OC)cc(-c2nc[nH]c2-c2ccc(OC)c(OP(=O)([O-])[O-])c2)c1.[Na+].[Na+] [C118P] |  |  |  |  | 6.535 | 18.281 | 54.41 | 18.369 |  |  |  |  |  |  |  |  | quite stable | ~18.367 | below or slightly higher than the LLOQ | quite stable |
